According to US12612395B2, “Rocaglate derivatives and uses thereof” (TRUSTEES OF BOSTON UNIVERSITY, priority 2023, dated 2026):
Values joined by “and” are separate entries in the source; they are usually repeats but may differ in a detail not shown here. Equal values may be shown once. “Also recorded” adds a separate entry of the source. Read-outs that look alike come from different tables or passages of the source.

Tests used:
[1] = test system: GBM0308 CSCs; test: Dose-response killing of GBM CSCs (PI/Hoechst, Celigo cytometer); type: cell-based; conditions: for CSCs Max. observed efficacy (% dead cells): up to 10 μM
Excerpt: (§1) The inventors first evaluated a cohort of seven rocaglate translation inhibitors (1, 3-7, and 9, FIG. 1A and Table 1, compounds 2 and 8 were not tested due to unavailability). To assay for compounds that selectively affect GBM CSCs, the inventors employed the patient-derived tumor-initiating cell (TIC) cell line […] that forms neurospheres (consisting exclusively of tumor-initiating cells or CSCs) when cultured in neurobasal (NBE) medium. Upon exposure to serum and growth factor withdrawal, however, the cell line differentiates, acquires a flattened morphology, and forms a non-CSC population.^20 Thus, compounds can be tested in parallel to assess their effect on GBM CSCs vs. GBM non-CSCs as separate populations with a clean and robust response. This approach has been previously used to perform RNAi-based genetic screens to identify modulators of CSCs.^20 In this study, GBM0308 cells, cultured in stem cell conditions to form CSCs or in medium containing serum to induce differentiation into a non-CSC population, were treated in parallel with compounds at varying doses. Three days post-treatment, propidium iodide (PI) and Hoechst staining were performed and quantified using a Celigo image cytometer. Hoechst dye stained all […] nucleated cells, while PI exclusively stained dead cells. Cell viability and the percentage of cell death were then determined.
(§2) Cell Culture: Glioblastoma stem cell lines GBM0308, BT145, and BT112 were cultured in neurobasal (NBE medium) containing N-2 and B-27 supplements, EGF, bFGF, L-glutamine, and Penicillin-Streptomycin), as described previously.^19 Adherent GBM cells were cultured in serum-containing DMEM media (Invitrogen) supplemented with 10% fetal bovine serum (Corning Cellgro™). Cells were incubated at 37° C. and 5% CO2 to allow neurosphere formation. For seeding and subculturing, the neurospheres were gently trypsinized with 0.025% trypsin to form a single-cell suspension.
(§3) Dose-Response Testing in GBM Cells: Briefly, on day 1, cells were seeded in triplicate. For CSCs, 1500 cells/well were plated in a low attachment 96-well plate with NBE media and incubated for 3 days at 37° C. and 5% CO2 to allow the formation of neurospheres. For non-CSCs, 3000 cells/well were plated in a 96-well plate with DMEM media supplemented with 10% FBS. Similarly, the assay plates were also incubated for the same duration. Compound treatments started on day 4. Each compound was resuspended in DMSO and then diluted to different concentrations in media to a final concentration of DMSO less than 1%. The compounds were added at concentrations of 10, 3.3, 1.11, 0.37, 0.12, 0.041, 0.013, and 0.004 µM, respectively. DMSO-treated cells served as a control. After 72 h incubation with the compounds, fluorescent stains, propidium iodide, and Hoechst 33342 (Life Technologies, Carlsbad, CA), were used to stain the GBM cells to determine cell viability. A staining solution in 1×PBS was prepared by mixing PI and Hoechst 33342 to working concentrations of 2.5 μM and 20 μM, respectively. 20 μL of this staining solution was added per well, and plates were incubated at 37° C. and 5% CO2 for 60 min. After incubation, plates were read by Celigo imaging cytometer using an inbuilt Celigo application; Cell Viability (Dead+Total). For the viability measurement, the total number of neurospheres/cells and dead neurospheres/cells in each well were counted by the cytometer. The percentage of PI+ cells was normalized to DMSO and plotted against the drug concentration to calculate the EC50 with a four-parameter, variable-slope dose-response curve with an upper constraint of <100% dead cells and a lower constraint of =0% dead cells (GraphPad Prism v.10.0.0). For all dose response experiments, the experimental maximal efficacy (maximum observed % cell death) is reported. Relative EC50 values are reported for all compounds killing >50% of cells.

[2] = test system: GBM0308 non-CSCs; test: Dose-response killing of GBM non-CSCs (PI/Hoechst, Celigo cytometer); type: cell-based; conditions: GBM0308 non-CSCs; for Non-CSCs Max. observed efficacy (% dead cells): Table 1, up to 10 μM
Excerpt: as §1, §2, §3

[3] = test system: cap-dependent translation (FF cistron of FF-HCV-Ren); test: In vitro translation assay, bicistronic FF-HCV-Ren mRNA reporter in Krebs-2 extracts; type: biochemical
Excerpt: (§4) Given these observations, the inventors next sought to interrogate the effects of compound (−)-20 in secondary assays for both eIF4A and DDX3 engagement. […] While inherent differences between the FP assay conditions (e.g. probe affinity, protein mobility in FP buffer) preclude direct comparison of absolute AmP values across the two different proteins, the inventors noted that relative anti-CSC potencies for these compounds ((−)-7>(−)-5≈(−)-20) were similar to their relative degrees of clamping for DDX3X and eIF4A1. To follow up on these findings, the inventors performed in vitro translation experiments using a bicistronic mRNA reporter construct FF-HCV-Ren, where translation of the firefly luciferase (FF) cistron is cap-dependent, while translation of the Renilla luciferase (HCV-Ren) cistron is driven off an HCV-IRES, rendering translation of this cistron cap-independent.
In vitro translation assays: In vitro translations were performed using 4 ng/μL of bicistronic FF-HCV-Ren/pA51 reporter mRNA and the indicated compound concentrations in Krebs-2 extracts at 30° C. for 1 h as described previously.^S10 Cap-dependent FLuc and cap-independent RLuc activities were assessed on a Berthold Lumat LB 9507 luminometer (Berthold Technologies). Curves were determined using a non-linear regression model on GraphPad Prism 8.4.0.

[4] = target: eIF4A1:FAM-labeled poly r(AG)8 (Homo sapiens, UniProt P60842); test: Fluorescence polarization (FP) RNA clamping assay, eIF4A1; type: binding; conditions: compound 10 μM, 1 mM ATP
Chain of eIF4A1:FAM-labeled poly r(AG)8 (P60842 whole entry, species assumed): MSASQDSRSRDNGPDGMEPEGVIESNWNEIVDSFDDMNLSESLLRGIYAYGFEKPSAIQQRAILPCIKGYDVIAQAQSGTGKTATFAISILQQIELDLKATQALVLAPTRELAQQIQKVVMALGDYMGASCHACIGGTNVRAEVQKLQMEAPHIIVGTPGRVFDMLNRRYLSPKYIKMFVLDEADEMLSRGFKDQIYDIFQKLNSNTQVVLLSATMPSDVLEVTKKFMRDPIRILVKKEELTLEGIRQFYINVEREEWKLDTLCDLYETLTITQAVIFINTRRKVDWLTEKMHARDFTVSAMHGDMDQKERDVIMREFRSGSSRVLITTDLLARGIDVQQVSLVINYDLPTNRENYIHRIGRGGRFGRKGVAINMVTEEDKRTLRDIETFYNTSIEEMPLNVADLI
Excerpt: as §4
Fluorescence Polarization (FP) Assays: Recombinant DDX3X or eIF4A1 (1.5 μM) were incubated with 10 nM FAM-labelled RNA probe and test compounds for 10 min in FP buffer (14.4 mM HEPES-KOH (pH 8), 108 mM NaCl, 1 mM MgCl2, 14.4% glycerol, 0.1% DMSO, 2 mM DTT, 1 mM ATP) at room temperature in black, low-volume 384 well plates (Corning 3820). FP readings were performed using a Pherastar FS microplate reader (BMG Labtech). Compounds were tested at a final concentration of 10 μM.^S9 For ADP+Pi conditions, ATP was substituted with 1 mM ADP and 1 mM Na2HPO4. To assess potency of complex formation, proteins were titrated in the presence of 10 nM probe, 50 μM compounds and 1 mM ATP. Experiments were run in three replicates, with each replicate employing the same master mix of protein, probe and buffer split across the four test conditions (DMSO+three test compounds). […] Data was analyzed using GraphPad Prism 8.4.0, with a “[Agonist] vs. normalized response” nonlinear regression model used to determine the EC50 for stimulation of helicase-RNA probe binding in the presence of test compound.

[5] = target: DDX3X:FAM-labeled poly r(AG)8 (Homo sapiens, UniProt O00571); test: Fluorescence polarization (FP) RNA clamping assay, DDX3X; type: binding; conditions: 1 mM ATP; for stimulation of DDX3X:(AG)8 complex formation in protein titration, in words: 50 μM rocaglate; for stimulation of DDX3X binding to RNA (change in polarization), in words: compound 10 μM
Chain of DDX3X:FAM-labeled poly r(AG)8 (O00571 whole entry, species assumed): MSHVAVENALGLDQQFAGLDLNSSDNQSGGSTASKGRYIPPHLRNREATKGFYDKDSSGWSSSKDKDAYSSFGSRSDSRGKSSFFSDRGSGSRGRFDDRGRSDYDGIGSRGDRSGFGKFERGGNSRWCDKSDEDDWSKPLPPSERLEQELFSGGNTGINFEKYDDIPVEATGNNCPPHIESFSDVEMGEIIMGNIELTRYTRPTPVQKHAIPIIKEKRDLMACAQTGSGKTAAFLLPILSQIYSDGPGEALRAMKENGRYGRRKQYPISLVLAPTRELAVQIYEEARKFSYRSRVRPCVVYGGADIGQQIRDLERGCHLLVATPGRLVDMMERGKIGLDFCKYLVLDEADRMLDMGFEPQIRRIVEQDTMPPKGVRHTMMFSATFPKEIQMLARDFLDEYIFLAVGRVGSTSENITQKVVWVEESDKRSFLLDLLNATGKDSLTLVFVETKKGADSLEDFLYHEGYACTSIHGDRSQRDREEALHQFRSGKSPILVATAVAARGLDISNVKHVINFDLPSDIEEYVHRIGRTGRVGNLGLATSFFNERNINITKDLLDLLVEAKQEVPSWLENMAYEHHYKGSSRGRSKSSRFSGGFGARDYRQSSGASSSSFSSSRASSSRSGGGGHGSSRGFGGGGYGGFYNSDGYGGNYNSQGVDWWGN
Excerpt: as §4
Fluorescence Polarization (FP) Assays: Recombinant DDX3X or eIF4A1 (1.5 μM) were incubated with 10 nM FAM-labelled RNA probe and test compounds for 10 min in FP buffer (14.4 mM HEPES-KOH (pH 8), 108 mM NaCl, 1 mM MgCl2, 14.4% glycerol, 0.1% DMSO, 2 mM DTT, 1 mM ATP) at room temperature in black, low-volume 384 well plates (Corning 3820). FP readings were performed using a Pherastar FS microplate reader (BMG Labtech). Compounds were tested at a final concentration of 10 μM.^S9 For ADP+Pi conditions, ATP was substituted with 1 mM ADP and 1 mM Na2HPO4. To assess potency of complex formation, proteins were titrated in the presence of 10 nM probe, 50 μM compounds and 1 mM ATP. Experiments were run in three replicates, with each replicate employing the same master mix of protein, probe and buffer split across the four test conditions (DMSO+three test compounds). Within each replicate, data was normalized such that the highest response across the four tested conditions (as raw AmP counts) was used as 100% relative change in polarization, and the lowest response across the four tested conditions was used as 0% relative change in polarization. Data was analyzed using GraphPad Prism 8.4.0, with a “[Agonist] vs. normalized response” nonlinear regression model used to determine the EC50 for stimulation of helicase-RNA probe binding in the presence of test compound.

[6] = FF cistron, Krebs-2 extracts, 30° C., 1 h, read-out: cap-dependent translation inhibition EC50

SMILES: COc1cc(OC)c2c(c1)O[C@@]1(c3ccc(Br)cc3)[C@H](c3ccccc3)[C@@H](C(=O)NS(=O)(=O)N(C)C)[C@@H](O)[C@@]21O [(−)-20, (1R,2R,3S,3aR,8bS)-3a-(4-bromophenyl)-N—(N,N-dimethylsulfamoyl)-1,8b-dihydroxy-6,8-dimethoxy-3-phenyl-2,3,3a,8b-tetrahydro-1H-cyclopenta[b]benzofuran-2-carboxamide]
- fold by which potency of CSC death is higher than effects on cap-dependent translation ([1]; CSC EC50 vs translation EC50): ~20 fold
- EC50 ([1]; Homo sapiens, 72 h, Table 2, GBM0308 CSCs, 72 h treatment, relative EC50, read-out: CSCs EC50): 45 nM
- Emax ([1]; Homo sapiens, 72 h, read-out: CSCs Max. observed efficacy (% dead cells), Table 2, GBM0308 CSCs, 72 h, highest tested concentration 10 μM): 93%
- cytotoxic activity against non-CSCs, in words [2]: limited detectable effects
- Emax ([2]; Homo sapiens, Table 2, 72 h, highest tested concentration 10 μM, read-out: Non-CSCs Max. observed efficacy (% dead cells)): 26%
- EC50 [3, 6]: 937 nM
- EC50 ([3]; approximate value, read-out: translation inhibition EC50): ~1000 nM
- stimulation of eIF4A1 binding to RNA (change in polarization), in words [4]: strongly stimulated
- stimulation of DDX3X:(AG)8 complex formation in protein titration, in words [5]: significant enhancement of binding stimulation
- stimulation of DDX3X binding to RNA (change in polarization), in words [5]: stimulated RNA binding to a greater extent

SMILES: CONC(=O)[C@H]1[C@@H](O)[C@@]2(O)c3c(OC)cc(OC)cc3O[C@@]2(c2ccc(OC)cc2)[C@@H]1c1ccccc1 [(−)-5, CR-1-31b, reference compound]
- EC50 ([1]; GBM0308 CSCs, read-out: CSC EC50): 36 nM
- CSCs Max. observed efficacy (% dead cells) ([1]; Table 1, GBM0308 CSCs, 72 h): 91%
- Non-CSCs Max. observed efficacy (% dead cells) ([2]; 72 h): 22%
- EC50 [3, 6]: 215 nM and ~200 nM
- stimulation of eIF4A1 binding to RNA (change in polarization), in words [4]: strongly stimulated
- stimulation of DDX3X:(AG)8 complex formation in protein titration, in words [5]: significantly less efficacious

SMILES: CONC(=O)[C@H]1[C@@H](O)[C@@]2(O)c3c(OC)cc(OC)cc3O[C@@]2(c2ccc(Br)cc2)[C@@H]1c1ccccc1 [(−)-7, SDS-1-021]
- CSCs Max. observed efficacy (% dead cells) ([1]; Table 1, GBM0308 CSCs, 72 h): 92%
- EC50 ([1]; Table 1, GBM0308 CSCs, 72 h treatment, relative EC50, given for compounds causing at least 50% cell death, read-out: CSCs EC50): 7 nM
- Non-CSCs Max. observed efficacy (% dead cells) ([2]; 72 h): 31%
- stimulation of eIF4A1 binding to RNA (change in polarization), in words [4]: strongly stimulated; also recorded: strongest clamping
- stimulation of DDX3X:(AG)8 complex formation in protein titration, in words [5]: clearly favored; also recorded: significant enhancement of binding stimulation
- stimulation of DDX3X binding to RNA (change in polarization), in words [5]: stimulated RNA binding to a greater extent
